Where “and” joins values, the source holds several entries; their conditions need not be identical. Equal entries are not always repeated. Where two headings read alike, the source gives them in different places. Where a SMILES comes first, the peptide text is derived from it. [ ]: non-standard residue; d: D form. NMeL = CN[C@@H](CC(C)C)C(=O)O; Sar = CNCC(=O)O
Assay: Pharmacokinetics and oral bioavailability of D11.2 in male SD rats (IV, PO, SQ)
Format: in vivo
Settings: for half-life: read-out: T1/2z (converted); for MRT inf: in vivo
Description: In vivo bioavailability assays were conducted in mice and rats. D8.3.p1 and D10.1 were studied in female Balb/C mice by van Voorhis group at University of Washington. D11.2 was evaluated in Sprague Dawley (SD) rats by Robert Griffin’s group at Takeda Pharmaceuticals. D11.3 was studied in the male swiss albino mice by the contract research organization, GVK Biosciences Pvt. Ltd., Hyderabad, India. All animals used in these studies were handled in strict accordance with practices made to minimize suffering. All animal experiments conducted at the University of Washington, USA, and Takeda Pharmaceuticals, USA were approved by the Institutional Animal Care and Use Committee. Animal studies at GVK Biosciences were reviewed and approved by the Institutional Animal Ethics Committee of GVK Biosciences.
We selected four designed macrocycles with diverse structures and in vitro rates of permeability for in vivo oral bioavailability studies in the rodent models. Due to the intensive resource requirements for such studies, these studies were conducted by three different research groups. D8.3.p1 and D10.1 were studied in female Balb/C mice by van Voorhis group at University of Washington. D11.2 was evaluated in Sprague Dawley (SD) rats by Robert Griffin’s group at Takeda Pharmaceuticals. D11.3 was studied in the male swiss albino mice by the contract research organization, GVK Biosciences Pvt. Ltd., Hyderabad, India.
We evaluated the pharmacokinetic properties for D11.2 in male SD rats (n=3). D11.2 was dissolved in 2% DMSO/0.1% Tween80 and dosed by IV, PO, and SQ routes. Plasma samples were collected at multiple time points up to 24 hours. The quantification limit was established to be 2 ng/mL for the assay conditions tested. Pharmacokinetic parameters were modeled using the Phoenix WinNonlin software package.
Dosing vehicle: DMSO (2%) + 0.1% Tween80(IV, PO, SQ)
Dose: 1 mg/kg (PO, SQ, IV) • Sampling times: 0.083, 0.25, 0.5, 1, 2, 4, 6, 8, 24 h (PO, SQ, IV)

[1] = IV 1 mg/kg, individual rats R1, R2, R3, 1 mg/kg
[2] = PO 1 mg/kg, individual rats R4, R5, R6, 1 mg/kg
[3] = SQ 1 mg/kg, individual rats R7, R8, R9
[4] = male, Sprague Dawley, rat, plasma, iv, 1 mg/kg, IV 1 mg/kg, Mean
[5] = male, Sprague Dawley, rat, plasma, iv, 1 mg/kg, IV 1 mg/kg, individual rats R1, R2, R3
[6] = male, Sprague Dawley, rat, plasma, po, 1 mg/kg, PO 1 mg/kg, Mean
[7] = male, Sprague Dawley, rat, plasma, po, 1 mg/kg, PO 1 mg/kg, individual rats R4, R5, R6
[8] = male, Sprague-Dawley, rat, plasma, subcutaneous, 1 mg/kg, SQ 1 mg/kg, Mean
[9] = male, Sprague-Dawley, rat, plasma, subcutaneous, 1 mg/kg, SQ 1 mg/kg, individual rats R7, R8, R9

CC[C@@H](C)[C@H]1NC(=O)[C@@H]2CCCN2C(=O)[C@@H]([C@H](C)CC)NC(=O)CN(C)C(=O)[C@H](CC(C)C)NC(=O)[C@@H](Cc2ccccc2)NC(=O)[C@H](CC(C)C)N(C)C(=O)[C@H]2CCCN2C(=O)[C@@H](CC(C)C)NC(=O)[C@H](CC(C)C)NC(=O)[C@H]2CCCN2C1=O [Design D11.2, DILE DPRO LEU DLEU DPRO *LEU DPHE LEU *GLY DILE PRO] (cyclo(L[Sar][dI]P[dI][dP]L[dL][dP][NMeL][dF]))
AUClast [1]: 702 ng·h/mL and 858 ng·h/mL | AUC∞ [1]: 738 ng·h/mL and 926 ng·h/mL | C0 [1]: 669 ng/mL and 1234 ng/mL | CL [1]: 22.5 mL/min/kg and 18 mL/min/kg | Cmax [1]: 796 ng/mL and 499 ng/mL | MRT∞ [1]: 2.34 h and 2.51 h | T1/2z [1]: 2.05 h and 2.74 h | Vss [1]: 3.17 L/kg and 2.72 L/kg | Vz [1]: 4.00 L/kg and 4.27 L/kg | %F [2]: 13.0% and 8.18% | AUClast [2]: 89.3 ng·h/mL and 59.1 ng·h/mL | AUC∞ [2]: 95.9 ng·h/mL and 75.8 ng·h/mL | Cmax [2]: 35.2 ng/mL and 28.2 ng/mL | MRT∞ [2]: 3.02 h and 3.86 h | T1/2z [2]: 2.06 h and 2.53 h | Tmax [2]: 0.250 h | %F [3]: 160% and 105% | AUClast [3]: 741 ng·h/mL and 841 ng·h/mL | AUC∞ [3]: 777 ng·h/mL and 853 ng·h/mL | Cmax [3]: 99.4 ng/mL and 95.1 ng/mL | MRT∞ [3]: 7.64 h and 6.14 h | T1/2z [3]: 5.00 h and 3.71 h | AUC(0-inf) [4]: 780 ng·h/mL | AUC(0-t) [4]: 734 ng·h/mL | clearance [4]: 21.8 mL/min/kg | C0 (male, Sprague Dawley, rat, plasma, iv, 1 mg/kg, IV 1 mg/kg, Mean, read-out: C0): 843 ng/mL | Cmax (male, Sprague Dawley, rat, plasma, iv, 1 mg/kg, IV 1 mg/kg, Mean, read-out: Cmax): 605 ng/mL | half-life [4]: 2.29 h | Tmax (male, Sprague Dawley, rat, plasma, iv, 1 mg/kg, IV 1 mg/kg, Mean, read-out: Tmax): 0.0833 h | Vd (male, Sprague Dawley, rat, plasma, iv, 1 mg/kg, IV 1 mg/kg, Mean, read-out: Vss): 3.04 L/kg | Vd (male, Sprague Dawley, rat, plasma, iv, 1 mg/kg, IV 1 mg/kg, Mean, read-out: Vz): 4.24 L/kg | AUC(0-inf) [5]: 674 ng·h/mL | AUC(0-t) [5]: 642 ng·h/mL | clearance [5]: 24.7 mL/min/kg | C0 (male, Sprague Dawley, rat, plasma, iv, 1 mg/kg, IV 1 mg/kg, individual rats R1, R2, R3, read-out: C0): 626 ng/mL | Cmax (male, Sprague Dawley, rat, plasma, iv, 1 mg/kg, IV 1 mg/kg, individual rats R1, R2, R3, read-out: Cmax): 519 ng/mL | half-life [5]: 2.08 h | Tmax (male, Sprague Dawley, rat, plasma, iv, 1 mg/kg, IV 1 mg/kg, individual rats R1, R2, R3, read-out: Tmax): 0.0833 h | Vd (male, Sprague Dawley, rat, plasma, iv, 1 mg/kg, IV 1 mg/kg, individual rats R1, R2, R3, read-out: Vss): 3.23 L/kg | Vd (male, Sprague Dawley, rat, plasma, iv, 1 mg/kg, IV 1 mg/kg, individual rats R1, R2, R3, read-out: Vz): 4.46 L/kg | AUC(0-inf) [6]: 84.3 ng·h/mL | AUC(0-t) [6]: 71.7 ng·h/mL | bioavailability [6]: 11.1% | Cmax (male, Sprague Dawley, rat, plasma, po, 1 mg/kg, PO 1 mg/kg, Mean, read-out: Cmax): 31.6 ng/mL | half-life [6]: 2.33 h | Tmax (male, Sprague Dawley, rat, plasma, po, 1 mg/kg, PO 1 mg/kg, Mean, read-out: Tmax): 0.416 h | AUC(0-inf) [7]: 81.3 ng·h/mL | AUC(0-t) [7]: 66.8 ng·h/mL | bioavailability [7]: 12.1% | Cmax (male, Sprague Dawley, rat, plasma, po, 1 mg/kg, PO 1 mg/kg, individual rats R4, R5, R6, read-out: Cmax): 31.3 ng/mL | half-life [7]: 2.42 h | Tmax (male, Sprague Dawley, rat, plasma, po, 1 mg/kg, PO 1 mg/kg, individual rats R4, R5, R6, read-out: Tmax): 0.5 h | Cmax (male, Sprague Dawley, rat, plasma, sc, 1 mg/kg, SQ 1 mg/kg, Mean, read-out: Cmax): 109 ng/mL | half-life (male, Sprague Dawley, rat, plasma, sc, 1 mg/kg, SQ 1 mg/kg, Mean): 4.41 h | Tmax (male, Sprague Dawley, rat, plasma, sc, 1 mg/kg, SQ 1 mg/kg, Mean, read-out: Tmax): 4 h | Cmax (male, Sprague Dawley, rat, plasma, subcutaneous, 1 mg/kg, SQ 1 mg/kg, individual rats R7, R8, R9, read-out: Cmax): 131 ng/mL | half-life (male, Sprague Dawley, rat, plasma, subcutaneous, 1 mg/kg, SQ 1 mg/kg, individual rats R7, R8, R9): 4.52 h | Tmax (male, Sprague Dawley, rat, plasma, subcutaneous, 1 mg/kg, SQ 1 mg/kg, individual rats R7, R8, R9, read-out: Tmax): 4 h | bioavailability (male, Sprague-Dawley, rat, plasma, sc, 1 mg/kg, SQ 1 mg/kg, individual rats R7, R8, R9): 92.1% | AUC(0-inf) [8]: 903 ng·h/mL | AUC(0-t) [8]: 874 ng·h/mL | bioavailability [8]: 119% | AUC(0-inf) [9]: 1080 ng·h/mL | AUC(0-t) [9]: 1040 ng·h/mL | MRT inf (rat, 1 mg/kg, SQ 1 mg/kg, Mean): 6.86 h | MRT inf (rat, 1 mg/kg, SQ 1 mg/kg, individual rats R7, R8, R9): 6.81 h | MRT inf (rat, iv, 1 mg/kg, IV 1 mg/kg, Mean): 2.35 h | MRT inf (rat, iv, 1 mg/kg, IV 1 mg/kg, individual rats R1, R2, R3): 2.18 h | MRT inf (rat, po, 1 mg/kg, PO 1 mg/kg, Mean): 3.42 h | MRT inf (rat, po, 1 mg/kg, PO 1 mg/kg, individual rats R4, R5, R6): 3.38 h
